Laboratory results published in publication PMC2225439, “Amyloid as a Depot for the Formulation of Long-Acting Drugs” (PLoS Biology, 2008).
*1 amine or outer side, *2 acyl side, *3 side chain or, on linkers, in order; H or OH if unused. Where a SMILES comes first, the peptide text is derived from it. Side-chain parts run from the residue outwards. [ ]: non-standard residue; d: D form. The star is where a group is joined. dPhe(4-NHCONH2) = NC(=O)Nc1ccc(C[C@@H](N)C(=O)O)cc1; Dihydroorotyl(S) = O=C1C[C@@H](C(=O)*)NC(=O)N1; dPhe(4-NH2) = Nc1ccc(C[C@@H](N)C(=O)O)cc1; dPhe(4-Cl) = N[C@H](Cc1ccc(Cl)cc1)C(=O)O; Phe(4-NH2) = Nc1ccc(C[C@H](N)C(=O)O)cc1; d2Nal = N[C@H](Cc1ccc2ccccc2c1)C(=O)O; Lys(iPr) = CC(C)NCCCC[C@H](N)C(=O)O; NHCH2CH2OCH2CH2OEt = CCOCCOCCN*; d3Pal = N[C@H](Cc1cccnc1)C(=O)O; Methoxycarbamoyl = CONC(=O)*; Nicotinoyl = O=C(c1cccnc1)*; PEG3 = NCCOCCOCCOCCC(=O)O; CO = O=C([*:1])[*:2]; Butyryl = CCCC(=O)*

How the values were obtained:
[1] = Peptide release from amyloid (dialysis experiment); settings: 35 d; for stability of fibrils from release profile (in words): dialysis of 30-d-old samples; for t1/2: half-life of fibrils: time in which fluorescence inside drops by 50%, dialysis of 30-d-old analog, 3.5-kDa MWCO, 5% D-mannitol, room temperature, exponential fit, 2 d = intrinsic diffusion of monomer
Protocol: Although amyloid fibrils are very stable, they must follow thermodynamic equilibrium conditions between fibril and monomer. […] A total of 200 μl of 30-d-old GnRH analog (in) was dialyzed 4 ml of 5% D-mannitol (out). A 3.5-kDa cutoff, which is twice the size of the peptides studied, was chosen to ensure that the released particles are most likely monomeric. The peptide release and the remaining aggregates were monitored by fluorescence over 35 d at room temperature.
A 200-μl aliquot of aged GnRH in solution conditions given above was transferred into a 0.6-ml Eppendorf tube with a hole in the cap. To study the effect of heparin on peptide release, a mixture of hormone analog and heparin (1:1 v/v) was incubated overnight in parallel with a half-diluted peptide fibril sample in 5% D-mannitol and 0.01% sodium azide. The hole in the cap of the Eppendorf tube was sealed with a 3.5-kDa molecular weight cutoff (MWCO) membrane. Next, the Eppendorf tube was inserted upside down into a 15-ml Falcon tube containing 4 ml of 5% D-mannitol in water and 0.01% sodium azide. Care was taken to make sure that the membrane was exposed to solutions both in and outside and that any bubbles at the membrane interface were removed. The tubes were then incubated at room temperature. To measure the remaining peptide concentration inside the 0.6-ml Eppendorf tube, a 5-μl aliquot was diluted into 500 μl water with 5% D-mannitol, 0.01% sodium azide, and the fluorescence was measured with excitation at 280 nm and emission in the range of 290–500 nm. The excitation slit width was 2 nm, and emission slit width was 11 nm. To determine the peptide concentration outside the membrane in the 15-ml tube, an aliquot of 250 μl of solution was taken from the releasing medium, diluted into 500 μl final volume by 5% D-mannitol, 0.01% sodium azide, and fluorescence was measured. Following spectra recording, the dialysis system was reassembled as described above. […] The normalized intensity maxima from inside and outside the membrane were plotted as a function of time and fit by an exponential function to extract the half-life of the fibrils and the K off, respectively. […] The extracted half-life, t 1/2, is the time taken, during which the fluorescence signal inside the 0.6-ml Eppendorf tube drops by 50%.

[2] = Thio T binding (amyloid fibril formation); assay type: physicochemical; parameters: key to Thio T Binding: b, binding; n, not binding; settings: 1 mg/ml in 5% D-mannitol, 0.01% sodium azide, room temperature without stirring, monitored daily over 21 d; fluorescence ex 450 nm / em 482 nm; three independent experiments
Protocol: The kinetics of fibril formation in vitro is generally a slow process over several days or weeks, and can be monitored by the increase of fluorescence intensity of the cross-β-sheet–sensitive dye, Thio T [15]. Thio T fluorescence is thereby insignificant during the initial incubation period of amyloid aggregation due to the nonexistence of Thio T–sensitive β-sheet aggregates. After the initial phase, a time-dependent increase of fluorescence intensity is observed until a maximum intensity is reached, at which time maximal fibril formation has occurred. […] For the Thio T binding studies, all GnRH analogs were incubated at room temperature at a concentration of 1 mg/ml in 5% D-mannitol, conditions identical to the formulation used in the animal experiments. In addition, 0.01% sodium azide was added. The Thio T fluorescence was monitored daily for all analogs over a period of 21 d (Figure 1).
(§1) GnRH analogs were dissolved in a glass tube in 1 ml of 5% D-mannitol and 0.01% sodium azide at a concentration of 1 mg/ml. The GnRH analogs were then incubated at room temperature without stirring. The fibril formation was monitored by EM, CR, and time-resolved by Thio T binding studies. Three independent experiments were performed for each sample.
A 10-μl aliquot of peptide sample was diluted into 500 μl of water with 5% D-mannitol containing 0.01% (w/v) sodium azide. The solution was mixed with 10 μl of 1 mM Thio T prepared in the same solution. Fluorescence was measured immediately after addition of Thio T. The experiment was measured on a spectrofluorimeter (Photon Technology International) with excitation at 450 nm and emission at 482 nm. The fluorescence intensity at 482 nm was plotted against incubation time (day). A rectangular 10-mm quartz microcuvette was used. Three independent experiments were performed for each sample.

[3] = Electron microscopy of negative-stained samples; assay type: physicochemical; parameters: key to EM^8 / EM^30: fib, fibrils; nfib, no fibrils; settings: for EM, formation of amyloid-like fibrils at day 30 (in words): 30 d of incubation; for EM^8: electron microscopy at day 8 of incubation; for EM^8 / EM^30: 1 mg/ml in 5% D-mannitol, room temperature, at least two independent experiments; for EM^30: electron microscopy at day 30 of incubation
Protocol: To formally determine the formation of amyloid fibrils by GnRH analogs and to characterize other possible assemblies present in the sample, EM was done on all of the GnRH analogs. Since the EM analysis is for a qualitative interpretation only, amyloid fibrils and other small aggregates might be observed under the electron microscope even if only a minority of the sample forms fibrils. Samples were studied after 8 and 30 d of incubation. […] The fibrils show a wide variety of morphologies, comprising helical ultrastructures with varying degrees of lateral association. Furthermore, the fibrils are composed of one or more filaments, resulting in overall diameters ranging from approximately 6 to 12 nm. No oligomers are observed for the long-acting compounds at day 8 or at day 30 (Figures 2 and S2).
as §1
A 5-μl aliquot of peptide sample was diluted into 50 μl of water to a peptide concentration of approximately 50 μM, spotted on a glow-discharged, carbon-coated Formvar grid (Electron Microscopy Sciences), incubated for 5 min, washed with distilled water, and then stained with 1% (w/v) aqueous uranyl formate solution. Uranyl formate solutions were filtered through 0.2-μm sterile syringe filters (Corning) before use. EM analysis was performed using a JEOL JEM-100CXII electron microscope at 80 kV with nominal magnifications between 36,000 and 72,000. Images were recorded digitally by using the SIS Megaview III imaging system. At least two independent experiments were carried out for each sample.

Congo red (CR) binding = assay type: physicochemical; parameters: key to Congo Red: b, binding; n, not binding; settings: analogs incubated for 30 d, 1 mg/ml in 5% D-mannitol, 0.01% sodium azide, room temperature; UV 300–700 nm and by eye; three independent experiments
Protocol: To confirm amyloid formation by GnRH analogs, CR binding was measured. CR, like Thio T, is a dye routinely used to detect β-sheet–rich assemblies. CR binding can be measured by the “red shift” change of its absorption maximum from 490 to 540 nm, by an increase of the dye's molar absorptivity, and in favorable cases by eye. All three types of measurements were performed with GnRH analogs incubated for 30 d. […] However, five short-acting GnRH analogs, i.e., S3, S4, S6, S10, and S11, bind CR, showing that some short-acting GnRH-analogs are able to form amyloids after prolonged incubation (see also below). In contrast to short-acting analogs, all long-acting analogs bind CR.
as §1
A 5-μl aliquot of peptide sample was mixed with 80 μl of PBS buffer containing 10% ethanol. Then 15 μl of a 100 μM CR solution (filtered through 0.2-μm filter) in PBS containing 10% ethanol was added. After mixing, UV was measured from 300–700 nm. For the measurement of the CR-only spectrum, 15 μl of CR solution with 85 μl of PBS containing 10% ethanol was prepared. As a control, a 5-μl aliquot of GnRH analog mixed with 95 μl of PBS containing 10% ethanol was measured. Three independent experiments were performed for each sample. In addition to the UV measurements, pictures of the cuvette containing the peptide sample and CR were taken to visually show the CR binding to the amyloids.

| stability of fibrils from release profile (in words) [1] | Thio T Binding [2] | EM^8 [3] | EM^30 [3] | t1/2 [1] | Congo Red (Congo red (CR) binding) | Compound | EM, formation of amyloid-like fibrils at day 30 (in words) [3] | EM, formation of amyloid-like fibrils at day 8 (in words) ([3]; 8 d of incubation) |
| --- | --- | --- | --- | --- | --- | --- | --- | --- |
| form unstable fibrils | – | – | – | – | – | CC(=O)N[C@H](Cc1ccc2ccccc2c1)C(=O)N[C@H](Cc1ccc(Cl)cc1)C(=O)N[C@H](Cc1cccnc1)C(=O)N[C@@H](CO)C(=O)N[C@@H](CCCCNC(=O)c1cccnc1)C(=O)N[C@H](CCCCNC(=O)c1cccnc1)C(=O)N[C@@H](CC(C)C)C(=O)N[C@@H](CCCCNC(C)C)C(=O)N1CCC[C@H]1C(=O)N[C@H](C)C(N)=O [S6, Ac-DNal-DCpa-DPal-Ser-Lys(Nic)-DLys(Nic)-Leu-ILys-Pro-DAla-NH2, reference compound] (Ac-[d2Nal][dPhe(4-Cl)][d3Pal]SK(Nicotinoyl)[dK](Nicotinoyl)L[Lys(iPr)]P[dA]-NH2) | – | – |
| form unstable fibrils | – | – | – | – | – | CCOCCOCCNC(=O)Nc1ccc(C[C@@H](NC(=O)[C@H](Cc2ccc(NC(=O)[C@@H]3CC(=O)NC(=O)N3)cc2)NC(=O)[C@H](CO)NC(=O)[C@@H](Cc2cccnc2)NC(=O)[C@@H](Cc2ccc(Cl)cc2)NC(=O)[C@@H](Cc2ccc3ccccc3c2)NC(C)=O)C(=O)N[C@@H](CC(C)C)C(=O)N[C@@H](CCCCNC(C)C)C(=O)N2CCC[C@H]2C(=O)N[C@H](C)C(N)=O)cc1 [S11, [DAph(CONH(C2H4O)2-C2H5]degarelix] (Ac-[d2Nal][dPhe(4-Cl)][d3Pal]S[Phe(4-NH2)](Dihydroorotyl(S))[dPhe(4-NH2)]([CO-NHCH2CH2OCH2CH2OEt])L[Lys(iPr)]P[dA]-NH2) | – | – |
| – | n | nfib | nfib | 48 h | n | Ac-D3-Pro-DFpa-DTrp-Ser-Tyr-DTrp-Leu-Arg-Pro-Gly-NH2 [S5, reference compound] | do not form any detectable amyloid-like fibrils | – |
| – | n | nfib | nfib | 48 h | n | Ac-DNal-DCpa-DPal-Ser-Arg-DGlu(AA)-Leu-Arg-Pro-DAla-NH2 [S7, reference compound] | do not form any detectable amyloid-like fibrils | – |

The next lines start with the compound.

| Compound | stability of fibrils from release profile (in words) [1] | Thio T Binding [2] | EM^8 [3] | EM^30 [3] | t1/2 [1] | Congo Red (Congo red (CR) binding) | EM, formation of amyloid-like fibrils at day 30 (in words) [3] | EM, formation of amyloid-like fibrils at day 8 (in words) ([3]; 8 d of incubation) |
| --- | --- | --- | --- | --- | --- | --- | --- | --- |
| CONC(=O)NCCOCCOCCOCCC(=O)Nc1ccc(C[C@H](NC(=O)[C@H](CO)NC(=O)[C@@H](Cc2cccnc2)NC(=O)[C@@H](Cc2ccc(Cl)cc2)NC(=O)[C@@H](Cc2ccc3ccccc3c2)NC(C)=O)C(=O)N[C@H](Cc2ccc(NC(N)=O)cc2)C(=O)N[C@@H](CC(C)C)C(=O)N[C@@H](CCCCNC(C)C)C(=O)N2CCC[C@H]2C(=O)N[C@H](C)C(N)=O)cc1 [S2, [Aph(CO-(C2H4O)3-C2H4-NH-CO-NH-OCH3)^5]degarelix] (Ac-[d2Nal][dPhe(4-Cl)][d3Pal]S[Phe(4-NH2)]([PEG3-Methoxycarbamoyl])[dPhe(4-NHCONH2)]L[Lys(iPr)]P[dA]-NH2) | form unstable fibrils | – | – | – | – | – | – | – |
| CCOCCOCCNC(=O)N[C@H](Cc1ccc2ccccc2c1)C(=O)N[C@H](Cc1ccc(Cl)cc1)C(=O)N[C@H](Cc1cccnc1)C(=O)N[C@@H](CO)C(=O)N[C@@H](Cc1ccc(NC(=O)[C@@H]2CC(=O)NC(=O)N2)cc1)C(=O)N[C@H](Cc1ccc(NC(=O)NOC)cc1)C(=O)N[C@@H](CC(C)C)C(=O)N[C@@H](CCCCNC(C)C)C(=O)N1CCC[C@H]1C(=O)N[C@H](C)C(N)=O [S3, des-Ac-[D-Aph(CO-NH-OCH3)^6]-C2H5-(C2H4O)2-NH-CO-degarelix] ({NHCH2CH2OCH2CH2OEt-CO}-[d2Nal][dPhe(4-Cl)][d3Pal]S[Phe(4-NH2)](Dihydroorotyl(S))[dPhe(4-NH2)](Methoxycarbamoyl)L[Lys(iPr)]P[dA]-NH2) | form very stable amyloids with very little peptide release | – | – | – | – | – | – | – |
| CCCC(=O)N[C@H](Cc1ccc2ccccc2c1)C(=O)N[C@H](Cc1ccc(Cl)cc1)C(=O)N[C@H](Cc1cccnc1)C(=O)N[C@@H](CO)C(=O)N[C@@H](Cc1ccc(NC(=O)NOC)cc1)C(=O)N[C@H](Cc1ccc(NC(=O)NOC)cc1)C(=O)N[C@@H](CC(C)C)C(=O)N[C@@H](CCCCNC(C)C)C(=O)N1CCC[C@H]1C(=O)N[C@H](C)C(N)=O [S4, des-Ac-[Aph(CO-NH-OCH3)^5,D-Aph(CO-NH-OCH3)^6]-CH3-(CH2)2-CO-degarelix] (Butyryl-[d2Nal][dPhe(4-Cl)][d3Pal]S[Phe(4-NH2)](Methoxycarbamoyl)[dPhe(4-NH2)](Methoxycarbamoyl)L[Lys(iPr)]P[dA]-NH2) | form very stable amyloids with very little peptide release | – | – | – | – | – | – | – |
| Ac-DNal-DCpa-DPal-Ser-Aph(Atz)-DAph(Atz)-Leu-ILys-Pro-DAla-NH2 [L19, reference compound] | – | b | fib | fib | – | b | – | – |
| des-Ac-[Aph(CO-NH-OCH3)^5]-CH3-(CH2)2-CO-degarelix [L16] | – | b | fib | fib | – | b | – | Short worm-like protofibrils |
